# Experimental data as given in paper PMC5218480 (PLoS ONE, 2017).
# Test system: MV-4-11 cells
# Assay: Gene expression microarray analysis (Affymetrix PrimeView) and GSEA
# Format: cell-based, human
# Set-up: RFU PODN (11730768_x_at) / Fold change /veh PODN (11730768_x_at) / RFU LINC00158 (11744669_a_at) / Fold change /veh LINC00158 (11744669_a_at) / RFU DUSP10 (11751237_a_at) / Fold change /veh DUSP10 (11751237_a_at) / RFU ID3 (11757404_x_at) / Fold change /veh ID3 (11757404_x_at) / RFU PLEKHG5 (11737974_s_at) / Fold change /veh PLEKHG5 (11737974_s_at) / RFU LRRC4B (11730491_at) / Fold change /veh LRRC4B (11730491_at) / RFU GIMAP4 (11747438_a_at) / Fold change /veh GIMAP4 (11747438_a_at) / RFU KRT8 (11758183_x_at) / Fold change /veh KRT8 (11758183_x_at) / RFU CNN1 (11734310_a_at) / Fold change /veh CNN1 (11734310_a_at) / RFU VPS37D (11726825_at) / Fold change /veh VPS37D (11726825_at) / RFU C10orf10 (11716522_x_at) / Fold change /veh C10orf10 (11716522_x_at) / RFU KIR2DL2 /// KIR2DL4 /// KIR2DL5A /// KIR2DL5B /// KIR2DS1 /// KIR2DS2 /// KIR2DS3 /// KIR2DS4 /// KIR3DL3 /// KIR3DL3 /// KIR3DS1 (11738374_at) / Fold change /veh KIR2DL2 /// KIR2DL4 /// KIR2DL5A /// KIR2DL5B /// KIR2DS1 /// KIR2DS2 /// KIR2DS3 /// KIR2DS4 /// KIR3DL3 /// KIR3DL3 /// KIR3DS1 (11738374_at) / RFU C1QL1 (11718748_at) / Fold change /veh C1QL1 (11718748_at) / RFU TMPRSS4 (11747572_a_at) / Fold change /veh TMPRSS4 (11747572_a_at) / RFU HAMP (11756126_x_at) / Fold change /veh HAMP (11756126_x_at) / RFU RNFT2 (11725882_a_at) / Fold change /veh RNFT2 (11725882_a_at) / RFU NR4A2 (11747474_a_at) / Fold change /veh NR4A2 (11747474_a_at) / RFU ABCC12 (11746883_a_at) / Fold change /veh ABCC12 (11746883_a_at) / RFU TMEM136 (11760407_x_at) / Fold change /veh TMEM136 (11760407_x_at) / RFU CLDN22 /// WWC2 (11732394_at) / Fold change /veh CLDN22 /// WWC2 (11732394_at) / RFU HLA-DPB1 (11760878_x_at) / Fold change /veh HLA-DPB1 (11760878_x_at) / RFU SPINT1 (11716480_a_at) / Fold change /veh SPINT1 (11716480_a_at) / RFU GAP43 (11754022_s_at) / Fold change /veh GAP43 (11754022_s_at) / RFU A4GNT (11735810_at) / Fold change /veh A4GNT (11735810_at) / RFU PRB3 (11715151_x_at) / Fold change /veh PRB3 (11715151_x_at) / RFU TUBB4B (11761932_at) / Fold change /veh TUBB4B (11761932_at) / RFU CAPN14 (11732068_a_at) / Fold change /veh CAPN14 (11732068_a_at) / RFU TMCC2 (11721928_a_at) / Fold change /veh TMCC2 (11721928_a_at) / RFU IRGQ (11745062_a_at) / Fold change /veh IRGQ (11745062_a_at) / RFU FAM174B (11720279_a_at) / Fold change /veh FAM174B (11720279_a_at) / RFU TMPRSS4 (11748680_a_at) / Fold change /veh TMPRSS4 (11748680_a_at) / RFU FAM212B (11763350_a_at) / Fold change /veh FAM212B (11763350_a_at) / RFU PLEKHG5 (11743358_a_at) / Fold change /veh PLEKHG5 (11743358_a_at) / RFU ZSCAN30 (11745921_a_at) / Fold change /veh ZSCAN30 (11745921_a_at) / RFU CMKLR1 (11741424_a_at) / Fold change /veh CMKLR1 (11741424_a_at) / RFU LOC101060620 /// MAPK8IP1 (11723275_at) / Fold change /veh LOC101060620 /// MAPK8IP1 (11723275_at) / RFU SPTSSB (11747773_x_at) / Fold change /veh SPTSSB (11747773_x_at) / RFU PRSS12 (11739890_at) / Fold change /veh PRSS12 (11739890_at) / RFU BIN1 (11741810_x_at) / Fold change /veh BIN1 (11741810_x_at) / RFU WNT11 (11732464_a_at) / Fold change /veh WNT11 (11732464_a_at) / RFU C10orf10 (11716521_a_at) / Fold change /veh C10orf10 (11716521_a_at) / RFU C5orf56 (11738089_at) / Fold change /veh C5orf56 (11738089_at) / RFU CYB561 (11721691_x_at) / Fold change /veh CYB561 (11721691_x_at) / RFU ANKRD19P (11752326_a_at) / Fold change /veh ANKRD19P (11752326_a_at) / RFU OR2T12 /// OR2T33 /// OR2T8 (11738714_s_at) / Fold change /veh OR2T12 /// OR2T33 /// OR2T8 (11738714_s_at) / RFU VCAN (11748164_a_at) / Fold change /veh VCAN (11748164_a_at) / RFU JSRP1 (11732532_at) / Fold change /veh JSRP1 (11732532_at) / RFU KRTAP10-11 (11738290_x_at) / Fold change /veh KRTAP10-11 (11738290_x_at) / RFU MYO3A (11730013_a_at) / Fold change /veh MYO3A (11730013_a_at) / RFU EBF3 (11725865_a_at) / Fold change /veh EBF3 (11725865_a_at) / RFU CAMK2N1 (11719241_x_at) / Fold change /veh CAMK2N1 (11719241_x_at) / RFU C5orf56 (11738088_a_at) / Fold change /veh C5orf56 (11738088_a_at) / RFU OLFML3 (11715873_a_at) / Fold change /veh OLFML3 (11715873_a_at) / RFU LOC100653217 /// NTM (11731650_a_at) / Fold change /veh LOC100653217 /// NTM (11731650_a_at) / RFU MAPK11 (11762145_a_at) / Fold change /veh MAPK11 (11762145_a_at) / RFU FIZ1 (11724087_x_at) / Fold change /veh FIZ1 (11724087_x_at) / RFU OASL (11726364_x_at) / Fold change /veh OASL (11726364_x_at) / RFU SOX15 (11748057_x_at) / Fold change /veh SOX15 (11748057_x_at) / RFU CD79A (11719716_a_at) / Fold change /veh CD79A (11719716_a_at) / RFU HIST1H1D (11736915_at) / Fold change /veh HIST1H1D (11736915_at) / RFU CASKIN2 (11723855_a_at) / Fold change /veh CASKIN2 (11723855_a_at) / RFU LOC730098 (11760151_x_at) / Fold change /veh LOC730098 (11760151_x_at) / RFU OR4N2 (11742367_at) / Fold change /veh OR4N2 (11742367_at) / RFU PRRT2 (11749266_a_at) / Fold change /veh PRRT2 (11749266_a_at) / RFU SNX32 (11753110_a_at) / Fold change /veh SNX32 (11753110_a_at) / RFU CDHR5 (11726645_a_at) / Fold change /veh CDHR5 (11726645_a_at) / RFU RCAN1 (11760418_a_at) / Fold change /veh RCAN1 (11760418_a_at) / RFU FAM167A (11723789_a_at) / Fold change /veh FAM167A (11723789_a_at) / RFU FAM26E (11764081_at) / Fold change /veh FAM26E (11764081_at) / RFU ISYNA1 (11749810_s_at) / Fold change /veh ISYNA1 (11749810_s_at) / RFU ACY1 (11761880_at) / Fold change /veh ACY1 (11761880_at) / RFU 11764098_at / Fold change /veh 11764098_at / RFU SAMD14 (11745864_x_at) / Fold change /veh SAMD14 (11745864_x_at) / RFU NPB (11741838_a_at) / Fold change /veh NPB (11741838_a_at) / RFU TMPRSS6 (11731388_a_at) / Fold change /veh TMPRSS6 (11731388_a_at) / RFU KRTAP10-2 (11738614_at) / Fold change /veh KRTAP10-2 (11738614_at) / RFU ARHGAP8 /// PRR5-ARHGAP8 (11727945_x_at) / Fold change /veh ARHGAP8 /// PRR5-ARHGAP8 (11727945_x_at) / RFU KRTAP5-7 /// NADSYN1 (11734609_at) / Fold change /veh KRTAP5-7 /// NADSYN1 (11734609_at) / RFU RASL12 (11751679_a_at) / Fold change /veh RASL12 (11751679_a_at) / RFU CDKN2B (11736163_a_at) / Fold change /veh CDKN2B (11736163_a_at) / RFU PRF1 (11729649_at) / Fold change /veh PRF1 (11729649_at) / RFU, ZNF638 /// ZNF638-IT1 / Fold change vs veh, ZNF638 /// ZNF638-IT1 / RFU, PANK3 / Fold change vs veh, PANK3 / RFU, SH3YL1 / Fold change vs veh, SH3YL1 / RFU, ZEB2 / Fold change vs veh, ZEB2 / RFU, NRIP1 / Fold change vs veh, NRIP1 / RFU, PTTG1IP / Fold change vs veh, PTTG1IP / RFU, CAPN2 / Fold change vs veh, CAPN2 / RFU, MED14 / Fold change vs veh, MED14 / RFU, SNORA58 / Fold change vs veh, SNORA58 / RFU, C1orf63 / Fold change vs veh, C1orf63 / RFU, LRRFIP1 / Fold change vs veh, LRRFIP1 / RFU, NDUFAF7 / Fold change vs veh, NDUFAF7 / RFU, SLC12A2 / Fold change vs veh, SLC12A2 / RFU, IBTK / Fold change vs veh, IBTK / RFU, ESF1 / Fold change vs veh, ESF1 / Fold change vs veh, TMEM50B / RFU, TAOK1 / Fold change vs veh, TAOK1 / RFU, ACBD3 / Fold change vs veh, ACBD3 / RFU, TMA16 / Fold change vs veh, TMA16 / RFU, RWDD3 / Fold change vs veh, RWDD3 / RFU, BCAT1 / Fold change vs veh, BCAT1 / RFU, EDEM3 / Fold change vs veh, EDEM3 / RFU, TMEM33 / Fold change vs veh, TMEM33 / RFU, WDR75 / Fold change vs veh, WDR75 / RFU, AHCTF1 / Fold change vs veh, AHCTF1 / RFU, TFRC / Fold change vs veh, TFRC / RFU, ZDHHC17 / Fold change vs veh, ZDHHC17 / RFU, NOM1 / Fold change vs veh, NOM1 / RFU, ARL8B / Fold change vs veh, ARL8B / RFU, ZBTB11 / Fold change vs veh, ZBTB11 / RFU, TAMM41 / Fold change vs veh, TAMM41 / RFU, KIAA1704 /// LOC100996395 / Fold change vs veh, KIAA1704 /// LOC100996395 / RFU, ING1 / Fold change vs veh, ING1 / RFU, TRMT61B / Fold change vs veh, TRMT61B / RFU, FUBP3 / Fold change vs veh, FUBP3 / RFU, TP53 / Fold change vs veh, TP53 / RFU, TNKS2 / Fold change vs veh, TNKS2 / RFU, ZFP14 / Fold change vs veh, ZFP14 / RFU, ACTR2 / Fold change vs veh, ACTR2 / RFU, PPP3R1 / Fold change vs veh, PPP3R1 / RFU, PIK3R1 / Fold change vs veh, PIK3R1 / RFU, HNRNPA1 / Fold change vs veh, HNRNPA1 / RFU, RNF170 / Fold change vs veh, RNF170 / RFU, ZNF28 / Fold change vs veh, ZNF28 / RFU, RNGTT / Fold change vs veh, RNGTT / RFU, OGT / Fold change vs veh, OGT / RFU, BRD1 / Fold change vs veh, BRD1 / RFU, MARS / Fold change vs veh, MARS / RFU, ZNF655 / Fold change vs veh, ZNF655 / RFU, FAHD1 / Fold change vs veh, FAHD1 / RFU, BDP1 / Fold change vs veh, BDP1 / RFU, LRRCC1 / Fold change vs veh, LRRCC1 / RFU, ARID1A / Fold change vs veh, ARID1A / RFU, ZNF146 / Fold change vs veh, ZNF146 / RFU, ZNF330 / Fold change vs veh, ZNF330 / RFU, GPN3 / Fold change vs veh, GPN3 / RFU, C9orf123 / Fold change vs veh, C9orf123 / RFU, N4BP2L2 / Fold change vs veh, N4BP2L2 / RFU, ARFIP1 / Fold change vs veh, ARFIP1 / RFU, FAM179B / Fold change vs veh, FAM179B / RFU, BCL10 / Fold change vs veh, BCL10 / RFU, UHRF1BP1L / Fold change vs veh, UHRF1BP1L / RFU, BET1 / Fold change vs veh, BET1 / RFU, CNOT2 / Fold change vs veh, CNOT2 / RFU, ZNF268 / Fold change vs veh, ZNF268 / Fold change vs veh, ZNF507 / RFU, DGCR2 / Fold change vs veh, DGCR2 / RFU, WDSUB1 / Fold change vs veh, WDSUB1 / Fold change vs veh, HSP90B1 /// MIR3652 / RFU, ADSS / Fold change vs veh, ADSS / RFU, GK / Fold change vs veh, GK / RFU, ZNF148 / Fold change vs veh, ZNF148 / RFU, TAF9 / Fold change vs veh, TAF9 / RFU, SLC1A5 / Fold change vs veh, SLC1A5 / RFU, SLMO2 / Fold change vs veh, SLMO2 / RFU, ABCC4 / Fold change vs veh, ABCC4 / RFU, LOC101060439 /// RAP1B / Fold change vs veh, LOC101060439 /// RAP1B / RFU, RFX7 / Fold change vs veh, RFX7 / RFU, GTPBP10 / Fold change vs veh, GTPBP10 / RFU, CNEP1R1 / Fold change vs veh, CNEP1R1 / RFU, BIVM-ERCC5 /// ERCC5 / Fold change vs veh, BIVM-ERCC5 /// ERCC5 / RFU, ILF3 / Fold change vs veh, ILF3 / RFU 11762660_at / Fold change /veh 11762660_at / RFU VCAN (11757783_s_at) / Fold change /veh VCAN (11757783_s_at) / RFU DDX43 (11728927_at) / Fold change /veh DDX43 (11728927_at) / RFU KRT8 (11758188_x_at) / Fold change /veh KRT8 (11758188_x_at) / RFU NKD1 (11759106_at) / Fold change /veh NKD1 (11759106_at) / RFU SRD5A1 (11742802_a_at) / Fold change /veh SRD5A1 (11742802_a_at) / RFU TPSAB1 /// TPSB2 (11721975_s_at) / Fold change /veh TPSAB1 /// TPSB2 (11721975_s_at) / RFU GSTM3 (11746129_a_at) / Fold change /veh GSTM3 (11746129_a_at) / RFU IL23R (11737362_x_at) / Fold change /veh IL23R (11737362_x_at) / RFU TMEM51 (11727254_a_at) / Fold change /veh TMEM51 (11727254_a_at) / RFU PIWIL2 (11732686_x_at) / Fold change /veh PIWIL2 (11732686_x_at) / RFU ORM1 (11744905_x_at) / Fold change /veh ORM1 (11744905_x_at) / RFU CCDC152 (11743942_at) / Fold change /veh CCDC152 (11743942_at) / RFU ECM1 (11717891_a_at) / Fold change /veh ECM1 (11717891_a_at) / RFU IL23R (11748794_a_at) / Fold change /veh IL23R (11748794_a_at) / RFU TNFAIP8L3 (11732012_x_at) / Fold change /veh TNFAIP8L3 (11732012_x_at) / RFU MBOAT4 (11741988_at) / Fold change /veh MBOAT4 (11741988_at) / RFU 11764193_at / Fold change /veh 11764193_at / RFU TMEM53 (11763286_at) / Fold change /veh TMEM53 (11763286_at) / RFU MAGEB2 (11727129_at) / Fold change /veh MAGEB2 (11727129_at) / RFU TMEM200A (11744735_a_at) / Fold change /veh TMEM200A (11744735_a_at) / RFU CCDC152 (11751479_a_at) / Fold change /veh CCDC152 (11751479_a_at) / RFU FAM211A (11726209_a_at) / Fold change /veh FAM211A (11726209_a_at) / RFU RGS16 (11746705_a_at) / Fold change /veh RGS16 (11746705_a_at) / RFU VCAN (11755009_s_at) / Fold change /veh VCAN (11755009_s_at) / RFU RHOB (11743442_s_at) / Fold change /veh RHOB (11743442_s_at) / RFU RGS16 (11720943_a_at) / Fold change /veh RGS16 (11720943_a_at) / RFU RGS16 (11720944_at) / Fold change /veh RGS16 (11720944_at) / RFU, VPS4B / Fold change vs veh, VPS4B / RFU, CREB1 / Fold change vs veh, CREB1 / RFU, DNAJC13 / Fold change vs veh, DNAJC13 / RFU, GNAQ / Fold change vs veh, GNAQ / RFU, CDK5R1 / Fold change vs veh, CDK5R1 / RFU, ZRANB3 / Fold change vs veh, ZRANB3 / RFU, CUL4A / Fold change vs veh, CUL4A / RFU, CCNY / Fold change vs veh, CCNY / RFU, UFL1 / Fold change vs veh, UFL1 / RFU, COG3 / Fold change vs veh, COG3 / RFU, DIAPH2 / Fold change vs veh, DIAPH2 / RFU, SKA2 / Fold change vs veh, SKA2 / RFU, AFF3 / Fold change vs veh, AFF3 / RFU, LMF1 / Fold change vs veh, LMF1 / RFU, IPO11 / Fold change vs veh, IPO11 / RFU, DFFB / Fold change vs veh, DFFB / RFU, FOXP1 / Fold change vs veh, FOXP1 / RFU, CARD8 / Fold change vs veh, CARD8 / RFU, STRN3 / Fold change vs veh, STRN3 / RFU, ADK / Fold change vs veh, ADK / RFU, RASSF2 / Fold change vs veh, RASSF2 / RFU, WIPF1 / Fold change vs veh, WIPF1 / RFU, LARP1B / Fold change vs veh, LARP1B / RFU, RASA1 / Fold change vs veh, RASA1 / RFU, RB1 / Fold change vs veh, RB1 / RFU, PPFIA1 / Fold change vs veh, PPFIA1 / RFU, MAT2A / Fold change vs veh, MAT2A / RFU, CCT5 / Fold change vs veh, CCT5 / RFU, WDR92 / Fold change vs veh, WDR92 / RFU, CUX1 / Fold change vs veh, CUX1 / RFU, TTC7A / Fold change vs veh, TTC7A / RFU, TMEM135 / Fold change vs veh, TMEM135 / RFU, DEPTOR / Fold change vs veh, DEPTOR / RFU, CPM / Fold change vs veh, CPM / RFU, DNAJB6 / Fold change vs veh, DNAJB6 / RFU, CACNA2D3 / Fold change vs veh, CACNA2D3 / RFU, DTX4 / Fold change vs veh, DTX4 / RFU, TFCP2 / Fold change vs veh, TFCP2 / RFU, GMCL1 /// GMCL1P1 / Fold change vs veh, GMCL1 /// GMCL1P1 / RFU, AEBP2 / Fold change vs veh, AEBP2 / RFU, SNHG1 /// SNORD22 /// SNORD25 /// SNORD26 /// SNORD27 /// SNORD28 /// SNORD29 /// SNORD31 / Fold change vs veh, SNHG1 /// SNORD22 /// SNORD25 /// SNORD26 /// SNORD27 /// SNORD28 /// SNORD29 /// SNORD31 / Fold change (Aza/veh), C12orf56 (ProbeSet 11735607_a_at) / Fold change (ACY-1035/veh), C12orf56 (ProbeSet 11735607_a_at) / Fold change (Aza/veh), FGFR1OP (ProbeSet 11751329_s_at) / Fold change (ACY-1035/veh), FGFR1OP (ProbeSet 11751329_s_at) / Fold change (Aza/veh), VPS36 (ProbeSet 11739960_a_at) / Fold change (ACY-1035/veh), VPS36 (ProbeSet 11739960_a_at) / RFU SYPL1 (11715823_x_at) / Fold change /veh SYPL1 (11715823_x_at) / RFU IGFBP7 (11715501_s_at) / Fold change /veh IGFBP7 (11715501_s_at) / RFU REEP3 (11722064_at) / Fold change /veh REEP3 (11722064_at) / RFU IGLL1 (11728026_x_at) / Fold change /veh IGLL1 (11728026_x_at): dose or concentration left out as unconfirmed
# Conditions: ProbeSet 11757268_x_at; LIST B
structure (smiles),measurement,value
Nc1ncn([C@@H]2O[C@H](CO)[C@@H](O)[C@H]2O)c(=O)n1 [azacitidine],"Fold change vs veh, HNRNPA1",0.91
